Read-outs that look alike come from different tables or passages of the source.
Experiments:
HepG2 cells = assay: Seahorse XFe96 cellular respiration assay (oxygen consumption rate); type: cell-based; conditions: 24 hour incubation
Description: To assess the potential effect of the five test articles on mitochondrial function, cellular respiration assays using a Seahorse XFe96 Flux Analyzer were conducted by Cyprotex (Macclesfield, UK) and overseen by the authors. HepG2 cells were incubated with each test article for 1 or 24 hours and tested for an effect on cellular respiration by measuring the oxygen consumption rate (OCR). Each study was conducted in triplicate. Importantly, the 1 hour culture was conducted in the absence of serum (i.e. no serum protein binding) as is standard for the Seahorse Analyzer assay conditions.

[1] = tested on: mitochondrial electron transport chain; assay: ETC inhibition parameter from MITOsym simulation of OCR data, translated to DILIsym; conditions: calculated from 24 h HepG2 OCR data and measured intracellular concentrations; lower = higher risk
Text: The parameters calculated in this manner were then translated to DILIsym parameters using a conversion factor based on the relative activity of rotenone in the in vitro vs. in vivo environment (7).

RNS/ROS formation = assay: RNS/ROS production parameter from DILIsym simulation of ROS data; conditions: calculated from 24 h HepG2 ROS data; higher = higher risk
Description: To define the DILIsym parameter values for lixivaptan- and WAY-138451-mediated oxidative stress, the 24 h in vitro data were simulated within DILIsym (Fig. 5). The intracellular concentration of each compound was measured by LC/MS/MS analysis. For lixivaptan, the measured intracellular concentration at each dose was used to parameterize the model. For WAY-138451, however, the LC/MS/MS data was inconsistent at low doses due to lower limit of detection issues. Thus, the mean measured cell-to-nominal-media ratio (0.672) was used to estimate intracellular concentrations at each dose. Reproduction of lixivaptan- and WAY-138451-mediated induction of oxidative stress defined the relationship between liver compound concentration and ROS formation with the reactive nitrogen/oxygen species (RNS/ROS) production rate constants listed in Table 2. […]
To define the DILIsym parameter values for lixivaptan- and WAY-138451-mediated oxidative stress, the 24 hour in vitro data were simulated within DILIsym (Figure B12). The intracellular concentration of each compound was measured by LC/MS/MS analysis. For lixivaptan, the measured intracellular concentration at each dose was used to parameterize the model. […] Thus, the mean measured cell-to-nominal-media ratio (0.672) was used to estimate intracellular concentrations at each dose. […]

[2] = cited from earlier work
[3] = set-up: method as in proprietary data not shown; conditions: rat tissue distribution study; ref proprietary data not shown; cited from earlier work

Structure (SMILES): Cc1ccc(F)cc1C(=O)Nc1ccc(C(=O)N2Cc3cccn3Cc3ccccc32)c(Cl)c1 [Lixivaptan, lixivaptan]
- effect on HepG2 oxygen consumption rate (mitochondrial respiration) (HepG2 cells): reduce the HepG2 oxygen consumption rate (OCR) in a dose-dependent manner
- Coefficient for ETC inhibition (DILIsym parameter) [1]: 535 µM
- RNS/ROS production rate constant (DILIsym parameter) (RNS/ROS formation): 0.000545 mL/nmol/h
- Clinical ALT >3X ULN ([2]; 100 mg BID, 60 days, hyponatremia protocol, ref study CK-LX3401 (not shown)): On treatment similar to placebo**
- Clinical ALT >3X ULN ([2]; 400 mg BID, 7 days, ref clinical trial CK-LX1403): no individuals out of 67 showed elevated ALT
- measured liver-to-plasma ratio [3]: 17
